Measurements taken from paper PMC3461044, “Probing Protein Sequences as Sources for Encrypted Antimicrobial Peptides” (PLoS ONE, 2012).
No end group written: not given here.

Experiments:
[1] = system: Xanthomonas axonopodis pv. glycines; conditions: for 1/(log(MICs (mM)), Xanthomonas axonopodis pv. glycines): from MIC, 0 where no detectable activity; for MIC, Xanthomonas axonopodis pv. glycines: serial 2-fold dilutions, 96-well, inoculum ~10^5 CFU/mL, highest 256 µg/mL, 48 h, OD600, NDA = Non-detectable activity
Procedure: MICs were determined using the M7-A6 protocol from the Clinical Laboratory Standards Institute (CLSI). […] Initial bacterium inoculum of ∼10^5 colony forming units/mL were transferred, along with serial 2-fold dilutions of each peptide to 96-well plates and incubated for 12 h. […] For each peptide concentration, optical density (OD600) readings were subtracted from that of the growth medium and divided by the positive control (100% bacterial growth). Inhibitory assays for X. axonopodis pv. glycines were conducted by the same methodology with longer incubation time (48 h).

[2] = system: Escherichia coli ATCC 25922; assay type: cell-based; conditions: for MIC, Escherichia coli: Mueller-Hinton broth, serial 2-fold dilutions, inoculum ~10^5 CFU/mL, highest 256 µg/mL, 12 h, OD600, NDA = Non-detectable activity; for 1/(log(MICs (mM)), Escherichia coli): from MIC, 0 where no detectable activity
Procedure: (§1) MICs were determined using the M7-A6 protocol from the Clinical Laboratory Standards Institute (CLSI). Escherichia coli ATCC 25922, Pseudomonas aeruginosa ATCC 27853, Staphylococcus aureus ATCC 29313 were streaked in Mueller-Hinton agar, grown overnight at 37°C, transferred to Mueller-Hinton broth and incubated until readings at 600 nm reached the equivalent of 0.5 in the MacFarland scale. […]. Inhibitory assays for X. axonopodis pv. glycines were conducted by the same methodology with longer incubation time (48 h).

[3] = system: Pseudomonas aeruginosa ATCC 27853; assay type: cell-based; conditions: for MIC, Pseudomonas aeruginosa: Mueller-Hinton broth, serial 2-fold dilutions, inoculum ~10^5 CFU/mL, highest 256 µg/mL, 12 h, OD600, NDA = Non-detectable activity; for 1/(log(MICs (mM)), Pseudomonas aeruginosa): from MIC, 0 where no detectable activity
Procedure: as §1

[4] = system: Staphylococcus aureus ATCC 29313; assay type: cell-based; conditions: for MIC, Staphylococcus aureus: Mueller-Hinton broth, serial 2-fold dilutions, inoculum ~10^5 CFU/mL, highest 256 µg/mL, 12 h, OD600, NDA = Non-detectable activity; for 1/(log(MICs (mM)), Staphylococcus aureus): from MIC, 0 where no detectable activity
Procedure: as §1

[5] = Far UV circular dichroism of peptides in buffer (MRE, α-helix percentage); assay type: physicochemical; conditions: for [q]208 nm Buffer (Greenfield 69): Mean Residue Ellipticity at 208 nm; for [q]208 nm Buffer (Greenfield 69) / [q]222 nm Buffer (Chen 74): peptide in buffer, far UV CD; for [q]222 nm Buffer (Chen 74): Mean Residue Ellipticity at 222 nm; for % Helicity (Buffer) (Greenfield 69): from [q]208 nm, methodology of Greenfield et al. 1969; for % Helicity (Buffer) (Chen 74): from [q]222 nm, methodology of Chen et al. 1974
Procedure: Far UV CD spectra were acquired for peptides at 20 µM in buffer and in the presence of DMPC or 2∶1 DMPC:DMPG LUVs at 1 mol% peptide/phospholipids. Peptides presented different degrees of secondary structures upon LUVs addition. […] Following the addition of LUVs, some peptides changed conformation resulting in spectral features characteristic of α-helical structures.
Experiments were conducted on a Jasco-J810 spectropolarimeter (Jasco International Co., Japan). Spectra were acquired at room temperature from 194 to 260 nm as an average of 4 readings using a 0.1 cm path length cell, data pitch of 0.2 nm and a response time of 0.5 s. Data Scans of buffer and 2 mM DMPC and 2∶1 DMPC:DMPG LUVs solutions were acquired and subtracted from each peptide data. Peptides were scanned at a concentration of 20 µM in buffer and then 100 fold excess of DMPC and 2∶1 DMPC:DMPG LUVs were added, resulting in a molar ratio of 0.01 peptide/phospholipids. […] Proximity to equilibrium was verified by scanning peptides added with twice the LUVs concentration, approximately 4 mM.

Substance	1/(log(MICs (mM)), Xanthomonas axonopodis pv. glycines) [1]	MIC, Xanthomonas axonopodis pv. glycines [1]	MIC, Escherichia coli [2]	1/(log(MICs (mM)), Escherichia coli) [2]	MIC, Pseudomonas aeruginosa [3]	1/(log(MICs (mM)), Pseudomonas aeruginosa) [3]	MIC, Staphylococcus aureus [4]	1/(log(MICs (mM)), Staphylococcus aureus) [4]	[q]208 nm Buffer (Greenfield 69) [5]	[q]222 nm Buffer (Chen 74) [5]	% Helicity (Buffer) (Greenfield 69) [5]	% Helicity (Buffer) (Chen 74) [5]	concentration that inhibited the in vitro growth of X. axonopodis pv. glycines ([1]; in vitro growth)
KAGLQFPVGRIARFLK [B4FGE3(22–37), putative IAP; fragment of Histone H2A, Zea mays]	0	NDA	NDA	0	NDA	0	NDA	0	-5213	-1506	4.2%	4.3%	
AAAAAAAIKMLMDLVNERIMALNKKAKK [Q6TV81(25–52)]		<1 µM											
FLSLIPHAINAVSTLVHHF [PS -2, reference compound]		121 µM											
GLWQIFSSKEEGKDNSQQKSKGDQAKEL [gb|ACU24018.1|(73–101), putative IAP; fragment of Unknown protein, Glycine max]	0	NDA	NDA	0	NDA	0	NDA	0	-7591	-2129	12.4%	6%	
LVQRFHAYLHKFREAFMNVGAAAAVEGTKAA [A4HW34(187–217)]		37 µM											
VWTTAMEKSSAANFSMSRNQRRSSLHSL [gb|AAD22970.1|(120–148), putative IAP; fragment of Trehalase 1 GMTRE1, Glycine max]	0	NDA	NDA	0	NDA	0	NDA	0					
FKQFHFKDFNRAFGFMTRVALQAEKL [P61458(35–60)]		40 µM											
GHRGALKDWVQAAGGAVAAFDFTTKG [Q8RW88(70–95), putative IAP; fragment of Alpha-amylase, Citrus reticulata]	0	NDA	NDA	0	NDA	0	NDA	0	-4005	-6062	0.0168%	17.2%	
IAAAQRITSGAADIAINWAGGLHHAKK [B0CZJ3(104–130), putative IAP; fragment of Histone deacetylase complex, Laccaria bicolor]	0	NDA	NDA	0	NDA	0	NDA	0	-17825	-7158	47.7%	20.3%	
Gm0026x00785(77–103) (HKMDLHWYLRTLEEVVIRALQRFQFR)													10 µM
LAKRRVLTLLRQLRRVSPSS [Q7YRI0(9–28)]		<2 µM											
GLWSTIKQKGKEAAIAAAKAAGQAALGAL [DS 01, reference compound]		<1 µM											
GIGKFLHSAKKFGKAFVGEIMNS-NH2 [Magainin-2 amide, reference compound]		13 µM											
